Data from US5061794A, “Cephalosporin derivatives, and antibacterial agents” (priority 1986, dated 1991).
Counter-ions that a name gives are not always drawn. Like-named read-outs stand apart in the source and are kept apart here.

Key:
E. coli CSH2 (RK1) = assay: microbe, parasite or virus in culture; assay type: cell-based; conditions: Escherichia coli, 16 h, read-out: Minimum Inhibitory Concentration (MIC), *E. coli CSH2 (RK1), lactamase-producing strain; 10^6 CFU/ml
Procedure, shortened: (§1)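 Plate dilution on Mueller Hinton agar with various antibiotic concentrations. Inoculum size was 10^6 CFU/ml, incubation 16 hours at 37° C.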

E. coli CSH(RE45) = assay: microbe, parasite or virus in culture; assay type: cell-based; conditions: Escherichia coli, 16 h, read-out: Minimum Inhibitory Concentration (MIC), *E. coli CSH(RE45), lactamase-producing strain; 10^6 CFU/ml
Procedure, shortened: as §1

A. calcoaceticus No. 4 = assay: in vitro antibacterial activity, agar plate dilution method (MIC); assay type: cell-based, Acinetobacter calcoaceticus; conditions: Acinetobacter calcoaceticus, NO.4, 16 h, 10^6 CFU/ml
Procedure, shortened: as §1

Ps. aeruginosa AKR17 = assay: as above; assay type: cell-based, Pseudomonas aeruginosa; conditions: Pseudomonas aeruginosa, 10^6 CFU/ml
Procedure, shortened: as §1

Ps. aeruginosa IF03445 = assay: as above; assay type: cell-based, Pseudomonas aeruginosa; conditions: Pseudomonas aeruginosa, IF03445, 16 h, read-out: Minimum Inhibitory Concentration (MIC), Ps. aeruginosa IF03445; 10^6 CFU/ml
Procedure, shortened: as §1

Ps. aeruginosa AK 109 = assay: as above; assay type: cell-based, Pseudomonas aeruginosa; conditions: Pseudomonas aeruginosa, AK109, 16 h
Procedure, shortened: as §1

Ps. cepacia 23 = assay: as above; assay type: cell-based, Pseudomonas cepacia; conditions: read-out: Minimum Inhibitory Concentration (MIC)
Procedure, shortened: as §1

E. cloacae Nek 39 = assay: as above; assay type: cell-based; conditions: Enterobacter cloacae, NEK39, 16 h, read-out: Minimum Inhibitory Concentration (MIC), *E. cloacae Nek 39, lactamase-producing strain; 10^6 CFU/ml
Procedure, shortened: as §1

K. oxytoca GN10650 = assay: as above; assay type: cell-based; conditions: Klebsiella oxytoca, GN10650, 16 h, read-out: Minimum Inhibitory Concentration (MIC), *K. oxytoca GN10650, lactamase-producing strain; 10^6 CFU/ml
Procedure, shortened: as §1

E. cloacae 963 = assay: as above; assay type: cell-based; conditions: 10^6 CFU/ml
Procedure, shortened: as §1

S. marcescens No. 16-2 = assay: as above; assay type: cell-based; conditions: Serratia marcescens, NO.162, 16 h
Procedure, shortened: as §1

S. aureus 209P NIHJ-JC1 = assay: as above; assay type: cell-based; conditions: Staphylococcus aureus, 16 h
Procedure, shortened: as §1

P. vulgaris No. 33 = assay: as above; assay type: cell-based; conditions: Proteus vulgaris, NO.33, 16 h, read-out: Minimum Inhibitory Concentration (MIC), *P. vulgaris No. 33, lactamase-producing strain; 10^6 CFU/ml
Procedure, shortened: as §1

M. morganii GN5407 = assay: as above; assay type: cell-based; conditions: Morganella morganii, GN5407, 16 h, read-out: Minimum Inhibitory Concentration (MIC), *M. morganii GN5407, lactamase-producing strain; 10^6 CFU/ml
Procedure, shortened: as §1

E. coli GN5482 = assay: as above; assay type: cell-based; conditions: Escherichia coli, GN5482, 16 h
Procedure, shortened: as §1

E. coli NIHJ JC2 = assay: as above; assay type: cell-based; conditions: Escherichia coli, NIHJJC2, 16 h, read-out: Minimum Inhibitory Concentration (MIC), E. coli NIHJ JC2, 10^6 CFU/ml, 37° C.
Procedure, shortened: as §1

P. vulgaris HX-19 = assay: as above; assay type: cell-based; conditions: Proteus vulgaris, HX19, 16 h, P. vulgaris HX-19; 10^6 CFU/ml; read-out: Minimum Inhibitory Concentration (MIC)
Procedure, shortened: as §1

K. pneumoniae PCI-602 = assay: as above; assay type: cell-based; conditions: Klebsiella pneumoniae, PCI602, 16 h, read-out: Minimum Inhibitory Concentration (MIC), K. pneumoniae PCI-602; 10^6 CFU/ml
Procedure, shortened: as §1

K. pneumoniae No. 42 = assay: as above; assay type: cell-based; conditions: Klebsiella pneumoniae, 10^6 CFU/ml
Procedure, shortened: as §1

S. marcescens IAM 1184 = assay: as above; assay type: cell-based; conditions: Serratia marcescens, IAM1184, 16 h, read-out: Minimum Inhibitory Concentration (MIC)
Procedure, shortened: as §1

[1] = A. calcoaceticus No. 4, read-out: Minimum Inhibitory Concentration (MIC)
[2] = 16 h, Ps. aeruginosa AKR17, read-out: Minimum Inhibitory Concentration (MIC)
[3] = Burkholderia cepacia, 16 h, Ps. cepacia 23, 10^6 CFU/ml
[4] = Enterobacter cloacae, 963, 16 h, read-out: Minimum Inhibitory Concentration (MIC), E. cloacae 963
[5] = read-out: Minimum Inhibitory Concentration (MIC), *S. marcescens No. 16-2, lactamase-producing strain, 10^6 CFU/ml
[6] = read-out: Minimum Inhibitory Concentration (MIC), S. aureus 209P NIHJ-JC1, 10^6 CFU/ml, 37° C., 16 hours
[7] = read-out: Minimum Inhibitory Concentration (MIC), *E. coli GN5482, lactamase-producing strain, 10^6 CFU/ml
[8] = NO.42, 16 h, read-out: Minimum Inhibitory Concentration (MIC), *K. pneumoniae No. 42, lactamase-producing strain
[9] = S. marcescens IAM 1184, 10^6 CFU/ml
[10] = read-out: Minimum Inhibitory Concentration (MIC), A. calcoaceticus No. 4
[11] = Ps. aeruginosa AK 109, 10^6 CFU/ml, read-out: Minimum Inhibitory Concentration (MIC)
[12] = read-out: Minimum Inhibitory Concentration (MIC)
[13] = Enterobacter cloacae, 16 h, E. cloacae 963, read-out: Minimum Inhibitory Concentration (MIC)

SMILES | MIC (E. coli CSH2 (RK1)) | MIC (E. coli CSH(RE45)) | MIC (A. calcoaceticus No. 4; [1]) | MIC (Ps. aeruginosa AKR17; [2]) | MIC (Ps. aeruginosa IF03445) | MIC (Ps. cepacia 23; [3]) | MIC (E. cloacae Nek 39) | MIC (K. oxytoca GN10650) | MIC (E. cloacae 963; [4]) | MIC (S. aureus 209P NIHJ-JC1; [6]) | MIC (P. vulgaris No. 33) | MIC (M. morganii GN5407) | MIC (E. coli GN5482; [7]) | MIC (E. coli NIHJ JC2) | MIC (P. vulgaris HX-19) | MIC (K. pneumoniae PCI-602) | MIC (K. pneumoniae No. 42; [8]) | MIC (S. marcescens IAM 1184; [9]) | MIC (A. calcoaceticus No. 4; [10]) | MIC (S. marcescens No. 16-2; [12]) | other results
CO/N=C(\C(=O)N[C@@H]1C(=O)N2C(C(=O)O)=C(CSc3nnc(-c4ccc(O)c(O)c4)s3)CS[C@H]12)c1csc(N)n1 [Ex. 25, sodium 7β-[2-(2-aminothiazol-4-yl)-2-methoxviminoacetamido]-3-[5-(3,4-dihydroxyphenyl)-1,3,4-thiadiazol-2-yl]thiomethyl-3-cephem-4-carboxylate] | < 0.006 µg/mL | 0.025 µg/mL | 0.2 µg/mL | 100 µg/mL | 0.78 µg/mL | < 0.006 µg/mL | 0.39 µg/mL | 0.78 µg/mL | 0.025 µg/mL | 0.78 µg/mL | 0.025 µg/mL | 0.025 µg/mL | 0.78 µg/mL | 0.2 µg/mL | < 0.006 µg/mL | < 0.006 µg/mL | 0.0125 µg/mL | 0.0125 µg/mL |  |  | MIC (Ps. aeruginosa AK 109; read-out: Minimum Inhibitory Concentration (MIC), Ps. aeruginosa AK 109, 10^6 CFU/ml): 0.78 µg/mL; MIC (S. marcescens No. 16-2; [5]): 1.56 µg/mL
C#CCO/N=C(\C(=O)N[C@@H]1C(=O)N2C(C(=O)O)=C(CSc3nnc(-c4ccc(O)c(O)c4)s3)CS[C@H]12)c1csc(N)n1 [Ex. 31, sodium 7β-[2-(2-aminothiazol-4-yl)-2-proparqyloxyiminoacetamido]-3-[5-(3,4-dihvdroxyphenyl)-1,3,4-thiadiazol-2-yl]thiomethyl-3-cephem-4-carboxylate] | < 0.006 µg/mL | 0.0125 µg/mL |  | 100 µg/mL | 0.78 µg/mL |  | 0.2 µg/mL | 0.78 µg/mL | 0.0125 µg/mL | 0.78 µg/mL | 0.025 µg/mL | 0.0125 µg/mL |  | 0.1 µg/mL | < 0.006 µg/mL | < 0.006 µg/mL |  |  | 0.1 µg/mL | 0.39 µg/mL | MIC (Ps. aeruginosa AK 109; [11]): 0.2 µg/mL; MIC (Ps. cepacia 23; Burkholderia cepacia, 23, 16 h): 0.0125 µg/mL; MIC (E. coli GN5482; [12]): 0.39 µg/mL; MIC (K. pneumoniae No. 42; 16 h, *K. pneumoniae No. 42, lactamase-producing strain, read-out: Minimum Inhibitory Concentration (MIC)): < 0.006 µg/mL; MIC (S. marcescens IAM 1184): 0.0125 µg/mL
Nc1nc(/C(=N/OCc2ccccc2)C(=O)N[C@@H]2C(=O)N3C(C(=O)O)=C(CSc4nnc(-c5ccc(O)c(O)c5)s4)CS[C@H]23)cs1 [Ex. 32, 7β-[2-(2-aminothiazol-4-yl)-2-benzyloxviminoacetamido]-3-[5-(3,4-dihydroxvphenvl)-1,3,4-thiadiazol-2-yl]thiomethyl-3-cephem-4-carboxylic acid trifluoroacetate] | < 0.006 µg/mL | 1.56 µg/mL |  | > 100 µg/mL | 0.78 µg/mL | < 0.006 µg/mL | 0.2 µg/mL | 0.39 µg/mL |  |  | 0.2 µg/mL | 0.1 µg/mL | 0.78 µg/mL | 0.39 µg/mL | 0.0125 µg/mL | < 0.006 µg/mL | 0.0125 µg/mL | 0.025 µg/mL | 0.39 µg/mL | 12.5 µg/mL | MIC (Ps. aeruginosa AK 109; [12]): 0.39 µg/mL; MIC (E. cloacae 963; [13]): 0.1 µg/mL; MIC (S. aureus 209P NIHJ-JC1; [12]): 0.39 µg/mL
Nc1nc(/C(=N/OC2(C(=O)O)CC2)C(=O)N[C@@H]2C(=O)N3C(C(=O)O)=C(CSc4nnc(-c5ccc(O)c(O)c5)s4)CS[C@H]23)cs1 [Ex. 35, disodium 7β-[2-(2-aminothiazol-4-yl)-2-(1-carboxylate-1-cyclooropoxyimino)acetamido]-3-[5-(3,4-dihydroxyphenyl)-1,3,4-thiadiazol-2-yl]thiomethyl-3-cephem-4-carboxylate] | < 0.006 µg/mL | < 0.006 µg/mL | 0.05 µg/mL |  | 0.39 µg/mL | < 0.006 µg/mL | 0.05 µg/mL | 0.025 µg/mL | 0.05 µg/mL |  | 0.0125 µg/mL | 0.05 µg/mL |  | 0.2 µg/mL | < 0.006 µg/mL | < 0.006 µg/mL | 0.0125 µg/mL | 0.025 µg/mL |  | 0.39 µg/mL | MIC (Ps. aeruginosa AKR17; AKR17, 16 h, read-out: Minimum Inhibitory Concentration (MIC), Ps. aeruginosa AKR17): 1.56 µg/mL; MIC (Ps. aeruginosa AK 109; [11]): 0.2 µg/mL; MIC (S. aureus 209P NIHJ-JC1; [12]): 12.5 µg/mL; MIC (E. coli GN5482; [12]): 0.39 µg/mL
CC(C)ON=C(C(=O)NC1C(=O)N2C(C(=O)O)=C(CSc3nc(-c4ccc(O)c(O)c4)cs3)CSC12)c1csc(N)n1 (stereo not drawn) [Ex. 41, sodium 7β-[2-(2-aminothiazol-4-yl)-2-isooropoxyiminoacetamido]-3-[4-(3,4-dihydroxyphenyl)-thiazol-2-yl]thiomethyl-3-cechem-4-carboxylate] | 0.0125 µg/mL | < 0.006 µg/mL |  | 50 µg/mL | 0.78 µg/mL | 0.05 µg/mL | 0.2 µg/mL | 0.39 µg/mL |  | 1.56 µg/mL | 0.05 µg/mL | 0.05 µg/mL | 0.78 µg/mL | 0.2 µg/mL | 0.025 µg/mL | < 0.006 µg/mL | 0.1 µg/mL | 0.05 µg/mL | 0.39 µg/mL |  | MIC (Ps. aeruginosa AK 109; [12]): 0.39 µg/mL; MIC (E. cloacae 963; [13]): 0.1 µg/mL; MIC (S. marcescens No. 16-2; [5]): 6.25 µg/mL
